pEC50: −log10 of the molar value. Read-outs that look alike come from different tables or passages of the source.
Biological target: T1, human SSTR4 (Homo sapiens, UniProt P31391)
T1 construct: expressed in transfected cells; host or cells: CHO-K1
Assay: hSSTR4 cAMP assay (cAMP accumulation, LANCE Ultra cAMP kit, CHO-K1 human SSTR4 Gi cell line)
Assay type: cell-based
Conditions: for pEC50: functional agonism, forskolin 10 μM stimulated CHO-K1 human SSTR4 Gi cells, 30 min at 25° C., at least duplicate, averaged, read-out: hSSTR4 EC50
Method in brief: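 CHO-K1 cells expressing human SSTR4 (Gi), pre-cultured 18-20 h or thawed and used directly, stimulated with 10 μM forskolin plus test agonist in concentration series, 30 min at 25° C. Lysate cAMP read by TR-FRET (Eu-cAMP tracer/ULight-anti-cAMP, 1 h, 25° C). Normalized to forskolin-only and forskolin+100 nM SST14 controls, 4-parameter fit; ≥duplicate, averaged.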

T1 sequence (P31391 whole entry): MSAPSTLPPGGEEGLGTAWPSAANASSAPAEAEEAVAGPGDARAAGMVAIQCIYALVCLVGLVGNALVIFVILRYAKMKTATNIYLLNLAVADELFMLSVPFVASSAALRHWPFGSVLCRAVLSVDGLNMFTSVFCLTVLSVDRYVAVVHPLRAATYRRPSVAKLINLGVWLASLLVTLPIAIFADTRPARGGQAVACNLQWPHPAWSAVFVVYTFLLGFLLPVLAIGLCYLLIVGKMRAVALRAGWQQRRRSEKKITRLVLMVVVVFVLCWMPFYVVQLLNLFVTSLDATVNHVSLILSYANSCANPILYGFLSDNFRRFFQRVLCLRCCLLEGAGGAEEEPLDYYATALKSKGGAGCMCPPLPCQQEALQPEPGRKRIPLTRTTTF

Row | SMILES | pEC50 | EC50 (morpholinyl matched molecular pairs (from WO 2016 075240), same cAMP assay conditions, read-out: hSSTR4 EC50 nM (Comparative Example)) [nM]
1 | Cc1cccn2c(C(C)(C)NC(=O)[C@@H]3CNCCN3C3CC(F)(F)C3)ncc12 [SC-021, (S)-1-(3,3-difluorocyclobutyl)-N-(2-(8-methylimidazo[1,5-a]pyridin-3-yl)propan-2-yl)piperazine-2-carboxamide] | 8.51 | 
2 | Cc1cccn2c(C(C)(C)NC(=O)[C@@H]3CNCCN3CC(F)(F)F)ncc12 [SC-017, (S)-N-(2-(8-methylimidazo[1,5-a]pyridin-3-yl)propan-2-yl)-1-(2,2,2-trifluoroethyl)piperazine-2-carboxamide] | 9.70 | 
3 | COCCN1CCNC[C@H]1C(=O)NC(C)(C)c1nn(C)c2ccccc12 [SC-101, (S)-1-(2-methoxyethyl)-N-(2-(1-methyl-1H-indazol-3-yl)propan-2-yl)piperazine-2-carboxamide] | 8.23 | 
4 | Cc1cccn2c(C(C)(C)NC(=O)[C@@H]3CN(C)CCN3)nc(C)c12 [SC-116, (S)-N-(2-(1,8-dimethylimidazo[1,5-a]pyridin-3-yl)propan-2-yl)-4-methylpiperazine-2-carboxamide] | 7.49 | 
5 | Cc1cccn2c(C(C)(C)NC(=O)[C@@H]3CN(CC4CCC(F)(F)CC4)CCN3)ncc12 [SC-067, (S)-4-((4,4-difluorocyclohexyl)methyl)-N-(2-(8-methylimidazo[1,5-a]pyridin-3-yl)propan-2-yl)piperazine-2-carboxamide] | 5.62 | 
6 | Cc1cccn2c(C(C)(C)NC(=O)[C@@H]3CN(Cc4cocn4)CCN3)ncc12 [SC-063, (S)-N-(2-(8-methylimidazo[1,5-a]pyridin-3-yl)propan-2-yl)-4-(oxazol-4-ylmethyl)piperazine-2-carboxamide] | 6.03 | 
7 | Cc1cccn2c(C(C)(C)NC(=O)[C@@H]3CN(Cc4cnn(C)c4)CCN3)ncc12 [SC-071, (S)-4-((1-methyl-1H-pyrazol-4-yl)methyl)-N-(2-(8-methylimidazo[1,5-a]pyridin-3-yl)propan-2-yl)piperazine-2-carboxamide] | 6.27 | 
8 | Cc1cccn2c(C(C)(C)NC(=O)[C@@H]3CNCCN3Cc3ccc(F)cc3)ncc12 [SC-027, (S)-1-(4-fluorobenzyl)-N-(2-(8-methylimidazo[1,5-a]pyridin-3-yl)propan-2-yl)piperazine-2-carboxamide] | 10.10 | 
9 | Cc1cccn2c(C(C)(C)NC(=O)[C@@H]3CNCCN3Cc3ccnc(C(F)(F)F)c3)ncc12 [SC-036, (S)-N-(2-(8-methylimidazo[1,5-a]pyridin-3-yl)propan-2-yl)-1-((2-(trifluoromethyl)pyridin-4-yl)methyl)piperazine-2-carboxamide] | 10.05 | 
10 | Cc1cccc2c(C(C)(C)NC(=O)[C@@H]3CNCCN3CC(F)(F)F)n[nH]c12 [SC-098, (S)-N-(2-(7-methyl-1H-indazol-3-yl)propan-2-yl)-1-(2,2,2-trifluoroethyl)piperazine-2-carboxamide] | 10.15 | 
11 | Cc1cccn2c(C(C)(C)NC(=O)[C@@H]3CN(C)CCN3)ncc12 [SC-043, (S)-4-methyl-N-(2-(8-methylimidazo[1,5-a]pyridin-3-yl)propan-2-yl)piperazine-2-carboxamide] | 6.46 | 
12 | Cc1cccn2c(C(C)(C)NC(=O)[C@@H]3CN(Cc4cnn(C(C)C)c4)CCN3)ncc12 [SC-074, (S)-4-((1-isopropyl-1H-pyrazol-4-yl)methyl)-N-(2-(8-methylimidazo[1,5-a]pyridin-3-yl)propan-2-yl)piperazine-2-carboxamide] | 5.59 | 
13 | Cc1cccn2c(C(C)(C)NC(=O)[C@@H]3CNCCN3CC3(C)COC3)ncc12 [SC-031, (S)-N-(2-(8-methylimidazo[1,5-a]pyridin-3-yl)propan-2-yl)-1-((3-methyloxetan-3-yl)methyl)piperazine-2-carboxamide] | 7.92 | 
14 | Cc1cccn2c(C(C)(C)NC(=O)[C@@H]3CNCCN3CC3CC(F)(F)C3)ncc12 [SC-089, (S)-1-((3,3-difluorocyclobutyl)methyl)-N-(2-(8-methylimidazo[1,5-a]pyridin-3-yl)propan-2-yl)piperazine-2-carboxamide] | 9.26 | 
15 | Cc1cccn2c(C(C)(C)NC(=O)[C@@H]3CN(Cc4ccn(C(C)C)n4)CCN3)ncc12 [SC-073, (S)-4-((1-isopropyl-1H-pyrazol-3-yl)methyl)-N-(2-(8-methylimidazo[1,5-a]pyridin-3-yl)propan-2-yl)piperazine-2-carboxamide] | 5.32 | 
16 | Cc1cccn2c(C(C)(C)NC(=O)[C@@H]3CN(CC4CCC4)CCN3)ncc12 [SC-068, (S)-4-(cyclobutylmethyl)-N-(2-(8-methylimidazo[1,5-a]pyridin-3-yl)propan-2-yl)piperazine-2-carboxamide] | 6.23 | 
17 | Cc1cccn2c(C(C)(C)NC(=O)[C@@H]3CNCCN3Cc3cnn(C)c3)ncc12 [SC-090, (S)-1-((1-methyl-1H-pyrazol-4-yl)methyl)-N-(2-(8-methylimidazo[1,5-a]pyridin-3-yl)propan-2-yl)piperazine-2-carboxamide] | 8.74 | 
18 | Cc1cccn2c(C(C)(C)NC(=O)[C@@H]3CNCCN3Cc3ccnc(C4CC4)c3)ncc12 [SC-022, (S)-1-((2-cyclopropylpyridin-4-yl)methyl)-N-(2-(8-methylimidazo[1,5-a]pyridin-3-yl)propan-2-yl)piperazine-2-carboxamide] | 10.05 | 
19 | Cc1cccn2c(C(C)(C)NC(=O)[C@@H]3CN(C(=O)C4CC4)CCN3)ncc12 [SC-077, (S)-4-(cyclopropanecarbonyl)-N-(2-(8-methylimidazo[1,5-a]pyridin-3-yl)propan-2-yl)piperazine-2-carboxamide] | < 6.00 | 

The next lines start with the values.

Row | pEC50 | EC50 (morpholinyl matched molecular pairs (from WO 2016 075240), same cAMP assay conditions, read-out: hSSTR4 EC50 nM (Comparative Example)) [nM] | SMILES
20 | 8.43 |  | Cc1cccn2c(C(C)(C)NC(=O)C3CNCCN3Cc3ccn(C)n3)ncc12 (racemic) [SC-006, rac-1-((1-methyl-1H-pyrazol-3-yl)methyl)-N-(2-(8-methylimidazo[1,5-a]pyridin-3-yl)propan-2-yl)piperazine-2-carboxamide]
21 | < 5.00 |  | Cc1cccn2c(C(C)(C)NC(=O)[C@@H]3CN(C(=O)C4CC(F)(F)C4)CCN3)ncc12 [SC-080, (S)-4-(3,3-difluorocyclobutane-1-carbonyl)-N-(2-(8-methylimidazo[1,5-a]pyridin-3-yl)propan-2-yl)piperazine-2-carboxamide]
22 | 8.54 |  | Cc1cccc2c(C(C)(C)NC(=O)[C@@H]3CN(C)CCN3)n[nH]c12 [SC-095, (S)-4-methyl-N-(2-(7-methyl-1H-indazol-3-yl)propan-2-yl)piperazine-2-carboxamide]
23 | 8.96 |  | COCCN1CCNC[C@H]1C(=O)NC(C)(C)c1ncc2c(C)cccn12 [SC-092, (S)-1-(2-methoxyethyl)-N-(2-(8-methylimidazo[1,5-a]pyridin-3-yl)propan-2-yl)piperazine-2-carboxamide]
24 | 7.51 |  | CN1CCN[C@H](C(=O)NC(C)(C)c2ncc3c(Cl)cccn23)C1 [SC-105, (S)-N-(2-(8-chloroimidazo[1,5-a]pyridin-3-yl)propan-2-yl)-4-methylpiperazine-2-carboxamide]
25 | 9.80 |  | Cc1cccn2c(C(C)(C)NC(=O)[C@@H]3CNCCN3CC3CCOCC3)ncc12 [SC-086, (S)-N-(2-(8-methylimidazo[1,5-a]pyridin-3-yl)propan-2-yl)-1-((tetrahydro-2H-pyran-4-yl)methyl)piperazine-2-carboxamide]
26 | 5.82 |  | Cc1cccn2c(C(C)(C)NC(=O)[C@@H]3CN(Cc4ccccn4)CCN3)ncc12 [SC-060, (S)-N-(2-(8-methylimidazo[1,5-a]pyridin-3-yl)propan-2-yl)-4-(pyridin-2-ylmethyl)piperazine-2-carboxamide]
27 | 8.92 |  | Cc1cccn2c(C(C)(C)NC(=O)[C@@H]3CNCCN3CC(C)(C)F)ncc12 [SC-018, (S)-1-(2-fluoro-2-methylpropyl)-N-(2-(8-methylimidazo[1,5-a]pyridin-3-yl)propan-2-yl)piperazine-2-carboxamide]
28 | 8.05 |  | Cc1cccn2c(C(C)(C)NC(=O)[C@@H]3CNCCN3CC(C)(C)O)ncc12 [SC-023, (S)-1-(2-hydroxy-2-methylpropyl)-N-(2-(8-methylimidazo[1,5-a]pyridin-3-yl)propan-2-yl)piperazine-2-carboxamide]
29 | 7.72 |  | CC(C)(NC(=O)[C@@H]1CNCCN1)c1ncc2c(Cl)cccn12 [SC-108, (S)-N-(2-(8-chloroimidazo[1,5-a]pyridin-3-yl)propan-2-yl)piperazine-2-carboxamide]
30 |  | > 10000 | CC(C)(NC(=O)[C@@H]1CNCCO1)c1nnc2c(Cl)cccn12
31 | 9.34 |  | Cc1cccn2c(C(C)(C)NC(=O)[C@@H]3CNCCN3CC3(C)CCC(F)(F)CC3)ncc12 [SC-024, (S)-1-((4,4-difluoro-1-methylcyclohexyl)methyl)-N-(2-(8-methylimidazo[1,5-a]pyridin-3-yl)propan-2-yl)piperazine-2-carboxamide]
32 | 8.64 |  | Cc1cccn2c(C(C)(C)NC(=O)C3CNCCN3Cc3cncnc3)ncc12 (racemic) [SC-005, rac-N-(2-(8-methylimidazo[1,5-a]pyridin-3-yl)propan-2-yl)-1-(pyrimidin-5-ylmethyl)piperazine-2-carboxamide]
33 | 5.89 |  | Cc1cccn2c(C(C)(C)NC(=O)[C@@H]3CNCCN3C(=O)C3CC(F)(F)C3)ncc12 (racemic) [SC-011, rac-1-(3,3-difluorocyclobutane-1-carbonyl)-N-(2-(8-methylimidazo[1,5-a]pyridin-3-yl)propan-2-yl)piperazine-2-carboxamide]

Source: US20250368625A1, “PIPERAZINES” (Grünenthal GmbH, priority 2024, published 2025)
